Results as given in ChEMBL document CHEMBL1201862, “PubChem BioAssay data set” (2004).
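Cultured in 96-well plates, cells were exposed to test compound for 48 hours across five concentrations. GI50 marks 50% less growth.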 Active and inactive are the calls of the source. No stated cut-off is given here; in the data, active = GI50 up to about 1.1 µM and inactive = higher.

Experiments:
Assay in all cases: NCI tumour cell line growth inhibition, 48 h
RXF 631 = tested on: RXF 631
XF498 = tested on: XF498
KM-20L2 = tested on: KM-20L2
LXFL 529 = tested on: LXFL 529
HOP-18 = tested on: HOP-18

Measured: GI50

C#CC1(O)CCC2[C@@H]3CCc4cc(Oc5nc(F)nc(-c6c7ccccc7c(SCC)n6CCC)n5)ccc4C3CC[C@@]21C (stereo partly drawn)
inactive: RXF 631 > 100 µM | XF498 > 100 µM | KM-20L2 > 100 µM | LXFL 529 38.5 µM | HOP-18 24.2 µM

CCCCCCCCCCCCCCCCCCCCCCC(=O)N[C@H]1CCc2cc(OC)c(OC)c(OC)c2-c2ccc(SC)c(=O)cc21
inactive: RXF 631 14.1 µM | XF498 20.8 µM | KM-20L2 18.7 µM | LXFL 529 41.9 µM

N/C(=N\O)N/N=C/c1cccs1
inactive: RXF 631 > 100 µM | XF498 98.9 µM | LXFL 529 32.4 µM | HOP-18 53.8 µM

Cc1nnc(N/N=C2\C(=O)Nc3ccccc32)n1N
inactive: RXF 631 > 100 µM | XF498 > 100 µM | KM-20L2 > 100 µM | LXFL 529 > 100 µM | HOP-18 > 100 µM

O=C(N/C(=C\c1c(O)ccc2ccccc12)c1nc2ccccc2[nH]1)c1ccccc1
inactive: RXF 631 > 100 µM | XF498 > 100 µM | KM-20L2 > 100 µM | LXFL 529 > 100 µM | HOP-18 > 100 µM

COC(=O)N/N=c1\cc(C(=O)Nc2ccc(C)c(C)c2)oc2cc(O)ccc12
inactive: RXF 631 > 100 µM | XF498 > 100 µM | KM-20L2 > 100 µM | LXFL 529 > 100 µM | HOP-18 > 100 µM
